From patent US8501732B2, “Aminomethyl quinolone compounds” (Hoffmann-La Roche Inc., priority 2011, dated 2013) come the findings set out here.

Counter-ions that a name gives are not always drawn.

In general, IC50 refers to the concentration needed to halve the response being measured.

This assay deals with JNK1 (Homo sapiens (Human), UniProt P45983). Kind of assay: In Vitro JNK1 Assay (TR-FRET, phosphorylation of GST-c-Jun). The class given is biochemical. The note with it: 0.2 nM active JNK1 kinase, 26.7 nM GST-c-Jun, 2 μM ATP, 30 min at room temperature. How it is done: Phosphorylation of GST-c-Jun protein (amino acid residues 1-79) was measured as JNK1 activity. […] The reaction buffer contained 50 mM HEPES, pH […], 1 mM DTT, 0.1 mM Na3VO4 and 0.2 mg/mL BSA. After 30 min. incubation at room temperature, the reaction was terminated by adding buffer containing 8 mM EDTA and a polyclonal anti-phospho-c-Jun antibody (Cell Signaling #9261L), followed by an additional incubation of 30 min. at room temperature. […] Time-resolved Fluorescence Resonance Energy Transfer (TR-FRET) signals were measured 1 hr. later on the EnVision reader (Perkin Elmer). Compound potency was assessed at 10 serially diluted concentrations. Percentage of inhibition at each concentration was determined to generate an IC50 value for each compound.
Sequence of JNK1 (P45983 whole entry, the tested form may be a part): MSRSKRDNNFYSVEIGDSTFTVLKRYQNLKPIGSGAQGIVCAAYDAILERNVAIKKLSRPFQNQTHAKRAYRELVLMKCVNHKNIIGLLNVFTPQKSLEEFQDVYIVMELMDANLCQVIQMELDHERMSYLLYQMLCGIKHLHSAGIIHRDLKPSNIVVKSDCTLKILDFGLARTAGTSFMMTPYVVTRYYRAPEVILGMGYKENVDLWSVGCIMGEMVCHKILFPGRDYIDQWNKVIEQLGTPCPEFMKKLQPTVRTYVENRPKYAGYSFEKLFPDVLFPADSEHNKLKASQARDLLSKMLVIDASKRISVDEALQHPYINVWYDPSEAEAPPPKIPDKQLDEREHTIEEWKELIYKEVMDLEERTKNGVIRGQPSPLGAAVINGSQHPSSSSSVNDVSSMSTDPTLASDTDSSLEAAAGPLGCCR
Turning to `O=C(NCc1cn(-c2ccccc2)c2cc(Cl)ccc2c1=O)Oc1ccccc1` [Example I-179, (7-Chloro-4-oxo-1-phenyl-1,4-dihydro-quinolin-3-ylmethyl)-carbamic acid phenyl ester], it took 2 µM to reach half-maximal inhibition (IC50).
Then `CN(C)C(=O)c1c(CNC(=O)c2ccc(F)cc2)c(=O)c2ccc(Cl)cc2n1-c1ccccc1` [Example I-20, 7-Chloro-3-[(4-fluoro-benzoylamino)-methyl]-4-oxo-1-phenyl-1,4-di-hydro-quinoline-2-carboxylic acid dimethylamide], with 0.24 µM; and `NC1CCN(c2ccc(C(=O)NCc3cn(-c4ccccc4)c4cc(Cl)ccc4c3=O)cn2)CC1` [Example I-90, 4-Amino-3,4,5,6-tetrahydro-2H-[1,2′]bipyridinyl-5′-carboxylic acid (7-chloro-4-oxo-1-phenyl-1,4-dihydro-quinolin-3-ylmethyl)-amide trifluoroacetate], with 0.13 µM; and `O=C(NCc1cn(-c2ccccc2Cl)c2cc(Cl)ccc2c1=O)c1ccc(-c2cn[nH]c2)nc1` [Example I-102, N-[7-Chloro-1-(2-chloro-phenyl)-4-oxo-1,4-dihydro-quinolin-3-ylmethyl]-6-(1H-pyrazol-4-yl)-nicotinamide], with 0.74 µM.
Molecule `COC(=O)c1c(CNC(=O)c2ccccc2Cl)c(=O)c2ccc(Cl)cc2n1-c1ccccc1` [Example I-148, 7-Chloro-3-[(2-chloro-benzoylamino)-methyl]-4-oxo-1-phenyl-1,4-dihydro-quinoline-2-carboxylic acid methyl ester] returned a concentration for half-maximal inhibition (IC50) of 0.43 µM.
In the case of `N#C/N=C(/NCc1cn(-c2ccccc2)c2cc(Cl)ccc2c1=O)Nc1ccccc1` [Example I-178, [(7-Chloro-4-oxo-1-phenyl-1,4-dihydro-quinolin-3-ylmethyl)-amino]-phenylamino-methylene-cyanamide] it was 2.7 µM; in that of `O=C(NCc1cn(-c2ccccc2)c2cc(Cl)ccc2c1=O)NC1CCN(S(=O)(=O)c2ccccc2)CC1` [Example I-196, 1-(7-Chloro-4-oxo-1-phenyl-1,4-dihydro-quinolin-3-ylmethyl)-3-(1-phenylsulfonyl-piperidin-4-yl)-urea], 1.1 µM.
In the case of `O=C(NCc1cn(-c2ccccc2)c2cc(Cl)ccc2c1=O)N1CCC(c2ccccc2)CC1` [Example I-190, 4-Phenyl-piperidine-1-carboxylic acid (7-chloro-4-oxo-1-phenyl-1,4-dihydro-quinolin-3-ylmethyl)-amide] it was 2.1 µM.
Molecule `O=C(NCc1cn(-c2ccccc2)c2cc(Cl)ccc2c1=O)c1ccc(N2CC[C@H](O)C2)nc1` [Example I-87, N-(7-Chloro-4-oxo-1-phenyl-1,4-dihydro-quinolin-3-ylmethyl)-6-((S)-3-hydroxy-pyrrolidin-1-yl)-nicotinamide] displayed a 50% inhibitory concentration (IC50) of 0.12 µM.
Then `CN(C)C(=O)c1c(CNC(=O)c2ccc(N3CCOCC3)cc2)c(=O)c2ccc(Cl)cc2n1-c1ccccc1` [Example I-17, 7-Chloro-3-[(4-morpholin-4-yl-benzoylamino)-methyl]-4-oxo-1-phenyl-1,4-dihydro-quinoline-2-carboxylic acid dimethylamide], with 0.14 µM; and `COC(=O)c1c(CNC(=O)c2ccccn2)c(=O)c2ccc(Cl)cc2n1-c1ccccc1` [Example I-146, 7-Chloro-4-oxo-1-phenyl-3-{[(pyridine-2-carbonyl)-amino]-methyl}-1,4-dihydro-quinoline-2-carboxylic acid methyl ester], with 0.1 µM; and `CC(C)(C)OC(=O)N1CCC(NC(=O)NCc2cn(-c3ccccc3)c3cc(Cl)ccc3c2=O)CC1` [Example I-192, 4-[3-(7-Chloro-4-oxo-1-phenyl-1,4-dihydro-quinolin-3-ylmethyl)-ureido]-piperidine-1-carboxylic acid tert-butyl ester], with 0.06 µM.
In the case of `CC(C)(C)OC(=O)N[C@H]1CC[C@@H](NC(=O)NCc2cn(-c3ccccc3)c3cc(Cl)ccc3c2=O)CC1` [Example I-181, {4-[3-(7-Chloro-4-oxo-1-phenyl-1,4-dihydro-quinolin-3-ylmethyl)-ureido]-cyclohexyl}-carbamic acid tert-butyl ester] it was 0.2 µM; in that of `O=C(NCc1cn(-c2ccccc2)c2cc(Cl)ccc2c1=O)c1cnc2nc[nH]c2c1` [Example I-49, 1H-Imidazo[4,5-b]pyridine-6-carboxylic acid (7-chloro-4-oxo-1-phenyl-1,4-dihydro-quinolin-3-ylmethyl)-amide], 0.23 µM; in that of `CS(=O)(=O)N1CCC(NC(=O)NCc2cn(-c3ccccc3)c3cc(Cl)ccc3c2=O)CC1` [Example I-197, 1-(7-Chloro-4-oxo-1-phenyl-1,4-dihydro-quinolin-3-ylmethyl)-3-(1-methanesulfonyl-piperidin-4-yl)-urea], 2.1 µM.
Regarding `NC(=O)C1CCN(c2ccc(C(=O)NCc3cn(-c4ccccc4)c4cc(Cl)ccc4c3=O)cn2)CC1` [Example I-86, 3,4,5,6-Tetrahydro-2H-[1,2′]bipyridinyl-4,5′-dicarboxylic acid 4-amide-5′-[(7-chloro-4-oxo-1-phenyl-1,4-dihydro-quinolin-3-ylmethyl)-amide]], the 50% inhibitory concentration (IC50) came out at 0.11 µM.
Then `O=C(NCc1cn(-c2ccccc2)c2cc(Cl)ccc2c1=O)NC1CCCC1` [Example I-184, 1-(7-Chloro-4-oxo-1-phenyl-1,4-dihydro-quinolin-3-ylmethyl)-3-cyclopentyl-urea], with 0.92 µM.
In the case of `O=C(NCc1cn(-c2ccccc2)c2cc(Cl)ccc2c1=O)N1CCN(c2ccccc2)CC1` [Example I-180, 4-Phenyl-piperazine-1-carboxylic acid (7-chloro-4-oxo-1-phenyl-1,4-dihydro-quinolin-3-ylmethyl)-amide] it was 0.12 µM.
Then `NC(=O)c1ccc(C(=O)NCc2cn(-c3ccccc3)c3cc(Cl)ccc3c2=O)cc1` [Example I-50, N-(7-Chloro-4-oxo-1-phenyl-1,4-dihydro-quinolin-3-ylmethyl)-terephthal-amide], with 0.3 µM.
Take `O=C(NCc1cn(-c2ccccc2)c2cc(Cl)ccc2c1=O)c1ccc(-c2cnco2)cc1` [Example I-47, N-(7-Chloro-4-oxo-1-phenyl-1,4-dihydro-quinolin-3-ylmethyl)-4-oxazol-5-yl-benzamide]: the 50% inhibitory concentration (IC50) was found to be 0.17 µM.
On to `COC(=O)c1c(CNC(=O)N2CCOCC2)c(=O)c2ccc(Cl)cc2n1-c1ccccc1` [Example I-209, 7-Chloro-3-{[(morpholine-4-carbonyl)-amino]-methyl}-4-oxo-1-phenyl-1,4-dihydro-quinoline-2-carboxylic acid methyl ester], for which it took 0.15 µM to reach half-maximal inhibition (IC50).
Then `O=C(NCc1cn(-c2ccccc2)c2cc(Cl)ccc2c1=O)c1cc(F)cc(F)c1` [Example I-58, N-(7-Chloro-4-oxo-1-phenyl-1,4-dihydro-quinolin-3-ylmethyl)-3,5-difluoro-benzamide], with 0.63 µM.
In the case of “1-(4-Chloro-3-fluoro-phenyl)-3-(7-chloro-4-oxo-1-phenyl-1,4-dihydro-quinolin-3-yl-methyl)-urea [Example I-204]” it was 1.1 µM; in that of `O=C(NCc1cn(-c2ccccc2)c2cc(Cl)ccc2c1=O)Nc1ccccc1` [Example I-201, 1-(7-Chloro-4-oxo-1-phenyl-1,4-dihydro-quinolin-3-ylmethyl)-3-phenyl-urea], 0.55 µM; in that of `O=C(NCc1cn(-c2ccccc2)c2cc(Cl)ccc2c1=O)c1ccn(Cc2cccc(Cl)c2)c(=O)c1` [Example I-44, 1-(3-Chloro-benzyl)-2-oxo-1,2-dihydro-pyridine-4-carboxylic acid (7-chloro-4-oxo-1-phenyl-1,4-dihydro-quinolin-3-ylmethyl)-amide], 0.11 µM.
`O=C(NCc1cn(-c2ccccc2F)c2cc(F)ccc2c1=O)c1ccc(N2CCS(=O)(=O)CC2)nc1` [Example I-107, 6-(1,1-Dioxo-1-thiomorpholin-4-yl)-N-[7-fluoro-1-(2-fluoro-phenyl)-4-oxo-1,4-dihydro-quinolin-3-ylmethyl]-nicotinamide] registered an IC50 of 0.1 µM.
In the case of `O=c1c(CNc2nc3ccccc3[nH]2)cn(-c2ccccc2)c2cc(Cl)ccc12` [Example I-176, 3-[(1H-Benzoimidazol-2-ylamino)-methyl]-7-chloro-1-phenyl-1H-quinolin-4-one] it was 0.85 µM; in that of `O=C(NCc1cn(-c2ccccc2)c2cc(Cl)ccc2c1=O)NC1CCN(C(=O)OCc2ccccc2)CC1` [Example I-195, 4-[3-(7-Chloro-4-oxo-1-phenyl-1,4-dihydro-quinolin-3-ylmethyl)-ureido]-piperidine-1-carboxylic acid benzyl ester], 0.58 µM.
In the case of `Cn1ccc(C(=O)NCc2cn(-c3ccccc3)c3cc(Cl)ccc3c2=O)cc1=O` [Example I-54, 1-Methyl-2-oxo-1,2-dihydro-pyridine-4-carboxylic acid (7-chloro-4-oxo-1-phenyl-1,4-dihydro-quinolin-3-ylmethyl)-amide] it was 0.67 µM; in that of `COC(=O)c1c(CNC(=O)c2ccccc2OC)c(=O)c2ccc(Cl)cc2n1-c1ccccc1` [Example I-149, 7-Chloro-3-[(2-methoxy-benzoylamino)-methyl]-4-oxo-1-phenyl-1,4-dihydro-quinoline-2-carboxylic acid methyl ester], 0.67 µM.
With `COC(=O)c1c(CNC(=O)c2ccc(N(C)C)cc2)c(=O)c2ccc(OC)cc2n1-c1ccccc1` [Example I-167, 3-[(4-Dimethylamino-benzoylamino)-methyl]-7-methoxy-4-oxo-1-phenyl-1,4-dihydro-quinoline-2-carboxylic acid methyl ester], the 50% inhibitory concentration (IC50) amounted to 0.18 µM.
